The assay concerns P388 leukemia ip, CD2F1 mice, survival T/C. Nature of the assay: NCI In Vivo Anticancer Drug Screen. Data for tumor model P388 Leukemia (intraperitoneal) in CD2F1 (CDF1) mice. The following applies: endpoint: median survival time, higher = longer survival. The essentials:
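Mice carrying the transplanted tumor received test compound or vehicle. Survival was recorded in each group, and the value is the treated-group measurement divided by that of the vehicle-treated control group.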

[1] abbreviates: dose: 100.0 mg/kg/injection, schedule: Q04DX003 (ip), vehicle: saline with Tween-80.
The mark [2] stands for this setting: dose: 200.0 mg/kg/injection, schedule: Q04DX003 (ip), vehicle: saline with Tween-80.
Where [3] appears, read: dose: 400.0 mg/kg/injection, schedule: Q04DX003 (ip), vehicle: saline with Tween-80.
The mark [4] stands for this setting: dose: 50.0 mg/kg/injection, schedule: Q01DX009 (ip), vehicle: saline with Tween-80.
The mark [5] stands for this setting: dose: 200.0 mg/kg/injection, schedule: Q01DX009 (ip), vehicle: saline with Tween-80.
Setting [6] is: dose: 400.0 mg/kg/injection, schedule: Q01DX009 (ip), vehicle: saline with Tween-80.
The mark [7] stands for this setting: dose: 100.0 mg/kg/injection, schedule: Q01DX009 (ip), vehicle: saline with Tween-80.
Where [8] appears, read: dose: 50.0 mg/kg/injection, schedule: Q01DX005 (ip), vehicle: Klucel (hydroxypropylcellulose) (HPC).
Where [9] appears, read: dose: 100.0 mg/kg/injection, schedule: Q01DX005 (ip), vehicle: Klucel (hydroxypropylcellulose) (HPC).
Where [10] appears, read: dose: 200.0 mg/kg/injection, schedule: Q01DX005 (ip), vehicle: Klucel (hydroxypropylcellulose) (HPC).
Setting [11] is: dose: 60.0 mg/kg/injection, schedule: Q01DX005 (ip), vehicle: saline.
Where [12] appears, read: dose: 120.0 mg/kg/injection, schedule: Q01DX005 (ip), vehicle: saline.
[13] abbreviates: dose: 240.0 mg/kg/injection, schedule: Q01DX005 (ip), vehicle: saline.
The mark [14] stands for this setting: dose: 60.0 mg/kg/injection, schedule: Q01DX005 (ip), vehicle: saline with Tween-80.
Setting [15] is: dose: 120.0 mg/kg/injection, schedule: Q01DX005 (ip), vehicle: saline with Tween-80.
[16] abbreviates: dose: 240.0 mg/kg/injection, schedule: Q01DX005 (ip), vehicle: saline with Tween-80.
The mark [17] stands for this setting: dose: 100.0 mg/kg/injection, schedule: Q04DX003 (ip), vehicle: saline.

Values joined by “and” are separate entries in the source; they are usually repeats but may differ in a detail not shown here. Equal values may be shown once. Inconclusive results and toxic doses are left out.

In the case of `COc1cc(NCC(C)(O)CN(CC(C)C)C(C)C)c2ncccc2c1` (stereo unspecified), the T/C was 97 % of control (dose: 12.5 mg/kg/injection, schedule: Q01DX005 (ip), vehicle: saline); 103 % of control (dose: 25.0 mg/kg/injection, schedule: Q01DX005 (ip), vehicle: saline); 106 % of control and 109 % of control (dose: 50.0 mg/kg/injection, schedule: Q01DX005 (ip), vehicle: saline).

As to `C(=N\Nc1ccccn1)/c1ccccn1.C(=N\Nc1ccccn1)/c1ccccn1.[Cl-].[Fe+3]`, the T/C runs as follows: (dose: 100.0 mg/kg/injection, schedule: Q01DX001 (ip), vehicle: saline with Tween-80) 100 % of control; (dose: 200.0 mg/kg/injection, schedule: Q01DX001 (ip), vehicle: saline with Tween-80) 89 % of control.

On to `CCCCn1c(=O)cc[nH]c1=O`, for which the T/C was 100 % of control under setting [1], 100 % of control under setting [2] and 99 % of control under setting [3].

Turning to `[Cl][Pt+2][Cl].[NH-]C1CCCC2CCC[N-]C12` (stereo unspecified), the T/C is 154 % of control under setting [4]; 174 % of control and 184 % of control under setting [5]; 176 % of control under setting [6].

Regarding `N#CC(C(=O)O)C1(c2ccccc2)CCCCC1` (stereo unspecified), the T/C is, setting by setting: under setting [4], 101 % of control; under setting [7], 93 % of control; under setting [5], 105 % of control.

With `O=c1c(N=Nc2ccccc2Cl)c(O)n(-c2ccc(Cl)cc2)c(=S)n1-c1ccc(Br)cc1`, the T/C by setting is: (dose: 100.0 mg/kg/injection, schedule: Q04DX002 (ip), vehicle: saline with Tween-80) 99 % of control; (dose: 200.0 mg/kg/injection, schedule: Q04DX002 (ip), vehicle: saline with Tween-80) 99 % of control; (dose: 400.0 mg/kg/injection, schedule: Q04DX002 (ip), vehicle: saline with Tween-80) 112 % of control.

As to `Cc1ccc(-n2c(N)c(C#N)c3c(c2=S)CCC3)cc1`, the T/C is, setting by setting: (dose: 50.0 mg/kg/injection, schedule: Q01DX005 (ip), vehicle: Klucel + Tween-80) 100 % of control; (dose: 100.0 mg/kg/injection, schedule: Q01DX005 (ip), vehicle: Klucel + Tween-80) 107 % of control; (dose: 200.0 mg/kg/injection, schedule: Q01DX005 (ip), vehicle: Klucel + Tween-80) 96 % of control.

On to `O=C(c1ccccc1)C1OC1c1ccccc1` (stereo unspecified), for which the T/C by setting is: under setting [4], 104 % of control; under setting [7], 105 % of control and 97 % of control; under setting [5], 103 % of control and 114 % of control; under setting [6], 109 % of control and 123 % of control; (dose: 600.0 mg/kg/injection, schedule: Q01DX009 (ip), vehicle: saline with Tween-80) 87 % of control.

Turning to `CCCCCC/C=C\C(=O)O[C@H]1C(=O)O[C@@H]2C[C@H]3C(C)=C(O)C(=O)C[C@]3(C)[C@H]3[C@@H](O)[C@H](O)[C@@]4(C(=O)OC)OC[C@]32[C@@H]14`, the T/C is, setting by setting: (dose: 0.75 mg/kg/injection, schedule: Q01DX005 (ip), vehicle: Klucel (hydroxypropylcellulose) (HPC)) 105 % of control; (dose: 1.5 mg/kg/injection, schedule: Q01DX005 (ip), vehicle: Klucel (hydroxypropylcellulose) (HPC)) 111 % of control; (dose: 3.0 mg/kg/injection, schedule: Q01DX005 (ip), vehicle: Klucel (hydroxypropylcellulose) (HPC)) 112 % of control; (dose: 6.0 mg/kg/injection, schedule: Q01DX005 (ip), vehicle: Klucel (hydroxypropylcellulose) (HPC)) 116 % of control.

As for `Nc1ccc(S(=O)(=O)Nc2cnc3c(Cl)cccc3n2)cc1`, the T/C (dose: 50.0 mg/kg/injection, schedule: Q01DX005 (ip), vehicle: DMSO) was 98 % of control and 99 % of control; the T/C under setting [8] is 108 % of control; the T/C (dose: 100.0 mg/kg/injection, schedule: Q01DX005 (ip), vehicle: DMSO) was 108 % of control and 116 % of control; the T/C under setting [9] is 106 % of control; the T/C (dose: 200.0 mg/kg/injection, schedule: Q01DX005 (ip), vehicle: DMSO) was 121 % of control; the T/C under setting [10] is 111 % of control. Moreover, the T/C (dose: 400.0 mg/kg/injection, schedule: Q01DX005 (ip), vehicle: DMSO) was 120 % of control.

On to `CN(C)C(=O)Nc1ccc(-c2cccnc2)cc1`, for which the T/C under setting [11] is 109 % of control, the T/C under setting [12] is 107 % of control and the T/C under setting [13] is 93 % of control.

As to `c1ccc2c(c1)SCC1COCOC21` (stereo unspecified), the T/C under setting [1] was 100 % of control, the T/C under setting [2] was 103 % of control and the T/C under setting [3] was 98 % of control.

Consider `Nc1nc2c(C(=O)c3ccco3)nnn2c2cccc(Cl)c12`, for which the T/C by setting is: under setting [14], 100 % of control; under setting [15], 104 % of control; under setting [16], 104 % of control.

For `Cc1ncc(COP(=O)(O)O)c(C2NCCS2)c1O` (stereo unspecified), the T/C is 102 % of control under setting [11], 105 % of control under setting [12] and 102 % of control under setting [13].

As to `CCN(CC)c1ccc2nc3c4ccccc4c(=NC(=O)c4ccccc4-c4c5ccc(N(CC)CC)cc5[o+]c5cc(N(CC)CC)ccc45)cc-3oc2c1`, the T/C was 106 % of control (dose: 50.0 mg/kg/injection, schedule: Q01DX009 (ip), vehicle: saline) and 96 % of control (dose: 100.0 mg/kg/injection, schedule: Q01DX009 (ip), vehicle: saline).

`ONC(=Nc1ccc2ccccc2c1)C(=Nc1ccc2ccccc2c1)NO`: the T/C under setting [8] is 95 % of control, the T/C under setting [9] was 90 % of control and the T/C under setting [10] is 94 % of control.

Turning to `Cc1ccc(NC(=O)Oc2ccc([N+](=O)[O-])cc2)cc1S(=O)(=O)F`, the T/C runs as follows: under setting [14], 113 % of control; under setting [15], 104 % of control; under setting [16], 95 % of control.

Turning to `CC1CCCC(C2CC3CCCCC3C(N)[N-]2)[N-]1.O=[N+]([O-])O.O=[N+]([O-])O.[Cu+2]` (stereo unspecified), the T/C (dose: 6.25 mg/kg/injection, schedule: Q04DX002 (ip), vehicle: suspension in saline) was 93 % of control and the T/C (dose: 12.5 mg/kg/injection, schedule: Q04DX002 (ip), vehicle: suspension in saline) was 110 % of control.

Turning to `c1ccc2c(c1)NC(NC1Nc3ccccc3N1)N2`, the T/C is, setting by setting: (dose: 30.0 mg/kg/injection, schedule: Q01DX005 (ip), vehicle: saline with Tween-80) 91 % of control; under setting [14], 86 % of control and 97 % of control.

For the molecule `O=C1CCCC1C(=S)S` (stereo unspecified), the T/C is 102 % of control under setting [17] and 102 % of control (dose: 200.0 mg/kg/injection, schedule: Q04DX003 (ip), vehicle: saline).

For `COC(=O)C1CCC2C(C1)OC1(CC(OC(=O)/C=C\c3ccccc3)C(C)CO1)C2(O)CO` (stereo unspecified), the T/C is 98 % of control (dose: 5.0 mg/kg/injection, schedule: Q01DX009 (ip), vehicle: saline + alcohol); 103 % of control (dose: 10.0 mg/kg/injection, schedule: Q01DX009 (ip), vehicle: saline + alcohol); 105 % of control (dose: 20.0 mg/kg/injection, schedule: Q01DX009 (ip), vehicle: saline + alcohol); 105 % of control (dose: 40.0 mg/kg/injection, schedule: Q01DX009 (ip), vehicle: saline + alcohol).

For the molecule `C[n+]1c(C2(O)CCCCCCCCCCC2)sc2ccccc21`, the T/C (dose: 60.0 mg/kg/injection, schedule: Q01DX005 (ip), vehicle: Klucel (hydroxypropylcellulose) (HPC)) was 95 % of control; the T/C (dose: 120.0 mg/kg/injection, schedule: Q01DX005 (ip), vehicle: Klucel (hydroxypropylcellulose) (HPC)) is 100 % of control; the T/C (dose: 240.0 mg/kg/injection, schedule: Q01DX005 (ip), vehicle: Klucel (hydroxypropylcellulose) (HPC)) was 115 % of control.

As to `CCSC(=O)N1CCN(C(=O)SCC)CC1`, the T/C by setting is: (dose: 12.5 mg/kg/injection, schedule: Q04DX003 (ip), vehicle: saline) 100 % of control; (dose: 25.0 mg/kg/injection, schedule: Q04DX003 (ip), vehicle: saline) 100 % of control; (dose: 50.0 mg/kg/injection, schedule: Q04DX003 (ip), vehicle: saline) 101 % of control; under setting [17], 108 % of control.

Consider `COc1ccc(B(C)N2CCCCC2C)cc1` (stereo unspecified), for which the T/C reads like this: (dose: 50.0 mg/kg/injection, schedule: Q01DX005 (ip), vehicle: saline with Tween-80) 102 % of control; (dose: 100.0 mg/kg/injection, schedule: Q01DX005 (ip), vehicle: saline with Tween-80) 100 % of control; (dose: 200.0 mg/kg/injection, schedule: Q01DX005 (ip), vehicle: saline with Tween-80) 98 % of control.

Source of the values: PubChem BioAssay AID330 (DTP/NCI, 2004).
